# Where a name gives a salt, the structure may show the parent alone. Read-outs that look alike come from different tables or passages of the source.
# Key:
# [1] = system: prostate cancer DU145 cells; assay: Cell proliferation inhibition activity assay (CCK-8 method), DU145; assay type: cell-based
# DYRK2 kinase = target: T1, DYRK2 kinase (Homo sapiens, UniProt Q92630); assay: DYRK2 kinase activity analysis assay (33P-ATP, DYRKtide substrate, P81 filter paper); assay type: biochemical; settings: 2 hours at room temperature
# T1 sequence (Q92630 1-601): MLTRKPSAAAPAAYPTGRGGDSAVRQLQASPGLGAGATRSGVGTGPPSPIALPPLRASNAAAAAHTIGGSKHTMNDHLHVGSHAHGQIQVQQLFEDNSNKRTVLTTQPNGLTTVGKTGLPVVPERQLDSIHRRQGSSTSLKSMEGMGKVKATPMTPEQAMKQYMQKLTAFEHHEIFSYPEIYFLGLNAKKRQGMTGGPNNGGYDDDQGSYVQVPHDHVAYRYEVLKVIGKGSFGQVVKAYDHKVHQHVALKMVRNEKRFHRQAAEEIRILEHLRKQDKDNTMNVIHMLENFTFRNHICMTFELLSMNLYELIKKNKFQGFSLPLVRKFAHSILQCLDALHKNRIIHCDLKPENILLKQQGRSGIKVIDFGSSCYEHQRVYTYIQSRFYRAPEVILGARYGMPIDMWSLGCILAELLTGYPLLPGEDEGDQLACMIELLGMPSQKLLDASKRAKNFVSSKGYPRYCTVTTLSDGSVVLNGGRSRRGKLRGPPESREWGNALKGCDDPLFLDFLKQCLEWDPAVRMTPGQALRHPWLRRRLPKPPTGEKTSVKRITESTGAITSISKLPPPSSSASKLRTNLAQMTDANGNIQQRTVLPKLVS
# [2] = system: prostate cancer 22Rv1 cells; assay: Cell proliferation inhibition activity assay (CCK-8 method), 22Rv1; assay type: cell-based
# [3] = system: human prostate cancer cell DU145 xenografts in nude mice; assay: In vivo efficacy assay against prostate cancer (DU145 xenograft); design: species or system BALB/c nude mice; settings: Example 20 study, 21 days; for T/C(%) / tumor inhibition rate: DU145 xenograft; for body weight of nude mice during dosing: each group, once a day
# ICR mice = assay: Acute toxicity test, single gavage, 14 days observation; assay type: in vivo
compound,measurement,setting,value
"Cl.O=C(c1ccc(Nc2ncc(F)c(-c3ccc4scnc4c3)n2)nc1)N1CCNCC1 [Example 20, (6-((4-(benzothiazole-5-yl)-5-fluoropyrimidine-2-yl)amino)pyridine-3-yl)(piperazine-1-yl)ketone hydrochloride]",IC50,"[1]; Homo sapiens, DU-145, DU145 cells, 72 hours, CCK8",3.25 ± 0.06 µM
same,inhibition of proliferation of prostate cancer DU145 cell,[1]; result in words,significantly inhibit
same,IC50,DYRK2 kinase; read-out: IC50,0.6 nM
same,IC50,"[2]; Homo sapiens, 22Rv1 cells, 72 hours, CCK8",2.55 ± 0.046 µM
same,inhibition of proliferation of prostate cancer 22Rv1 cell,[2]; result in words,significantly inhibit
same,T/C(%),[3]; 100 mg/kg once a day,50.9%
same,tumor inhibition rate,[3]; 100 mg/kg once a day,48.7%
same,body weight of nude mice during dosing,[3],no significant decrease in body weight
same,T/C(%),[3]; high dose 200 mg/kg once a day,34.4%
same,tumor inhibition rate,[3]; high dose 200 mg/kg once a day,65.3%
same,death of animals after day 14 of dosing,"ICR mice; gavage once, 1000, 2500, 5000 and 10000 mg/kg, day 14",no animals died
same,"weight of main organs (heart, liver, spleen, lung, kidney) versus control group","ICR mice; gavage once, 1000, 2500, 5000 and 10000 mg/kg, dissection after 14 days",no difference in the weight of main organs
same,abnormality after dosing,"ICR mice; gavage once, 1000, 2500, 5000 and 10000 mg/kg, within 12 hours after dosing",no abnormality was observed
same,death of animals within 24 hours of dosing,"ICR mice; gavage once, 1000, 2500, 5000 and 10000 mg/kg, within 24 hours",No animals died
same,toxic or side effects (overall conclusion),"ICR mice; gavage once, up to 10000 mg/kg",no obvious toxic or side effects
"CNC(=O)c1ccc(N2C(=S)N(c3ccc(C#N)c(C(F)(F)F)c3)C(=O)C2(C)C)cc1F [enzalutamide, reference compound]",T/C(%),[3]; 100 mg/kg once a day,42.0%
same,tumor inhibition rate,[3]; 100 mg/kg once a day,57.8%
same,body weight of nude mice during dosing,[3],no significant decrease in body weight
"CCOC(=O)N1CCN(C(=O)c2ccc(Nc3ncc(F)c(-c4ccc5scnc5c4)n3)nc2)CC1 [Example 18, ethyl 4-(6-((4-(benzothiazole-5-yl)-5-fluoropyrimidine-2-yl)amino)nicotinoyl) piperazine-1-carboxylate]",IC50,DYRK2 kinase; read-out: IC50,29 nM
"Cc1cnc(Nc2ccc(CN3CCN(C(C)C)CC3)cn2)nc1-c1ccc2scnc2c1 [Example 1, 4-(benzothiazole-5-yl)-N-(5-((4-isopropylpiperazine-1-yl)methyl)pyridine-2-yl)-5-methylpyri midine-2-amine]",IC50,DYRK2 kinase; read-out: IC50,1470 nM
CN(C)c1nc2ccc(-c3nc(Nc4ccc(C(=O)N5CCN(C(=O)C6CC6)CC5)cn4)ncc3F)cc2s1 [Example 36],IC50,DYRK2 kinase; IC50 (nM),16 nM
"COc1cnc(Nc2ccc(C(=O)N3CCNCC3)cn2)nc1-c1ccc2scnc2c1 [Example 6, (6-((4-(benzothiazole-5-yl)-5-methoxypyrimidine-2-yl)amino)pyridine-3-yl)(piperazine-1-yl)k etone hydrochloride]",IC50,DYRK2 kinase; read-out: IC50,774 nM
